Test results: patent US20220225597A1, “MOUSE MODEL FOR ASSESSING TOXICITIES ASSOCIATED WITH IMMUNOTHERAPIES” (Juno Therapeutics, Inc., priority 2017, published 2022)

Columns and labels:
BALB/c mice [1] = assay type: in vivo, mouse
Description: Various parameters relating to toxicity were assessed in BALB/c mice produced to develop B cell aplasia following administration of an immunotherapy involving anti-CD19 CAR T cells substantially as described in Example 2.
At 24, 48, and 72 hours after infusion with cell compositions, the three healthiest mice from each group were anesthetized, transcardially perfused with phosphate buffered saline (PBS) to flush brain blood vessels, and sacrificed. Blood and tissue samples (spleen, kidney, liver and brain) were collected for analysis of immune cell populations, gene expression, and blood chemistry. The blood and tissue samples were either processed for flow cytometry or were snap-frozen for RNA sequencing (RNA-Seq) analysis. For flow cytometry, tissue samples were digested and cell suspensions were layered over a density gradient to enrich immune cell populations.

BALB/c mice [2] = experiment: Serum chemistry profiles; conditions: various time points following cell treatment
Description: The serum was stored at −20° C. prior to analysis for complete serum chemistry panels, including for levels of serum glucose, albumin, albumin to globulin (A/G) ratio, globulin, total protein, calcium, phosphorus, ALT, AST, and BUN enzymes.

BALB/c mice [3] = assay type: in vivo, mouse; remark: listed apart in the source
Description: (§1) A single dose of either 100 mg/kg or 250 mg/kg cyclophosphamide (CPA) was injected into naïve BALB/c mice (tumor-free) by intraperitoneal (i.p.) injection. Twenty-four hours later, about 5×10^6 mouse CAR-expressing T cells or mock (control) cells, generated as described in Example 1, were transferred into mice by intravenous injection into the lateral tail vein. As a control, mice were injected with CPA alone or were left untreated. Table E1 sets forth the treatment groups.
Blood samples were collected from treated mice at days 3, 10, 17, 31 and, in some mice at day 43, following cell infusion. The pharmacokinetics (PK) in the blood of administered cells was assessed by detection of the surrogate marker Thy 1.1. The number of circulating B cells, T cells and CD11b+ cells in the blood at the time points following treatment also was assessed.

BALB/c mice [4] = experiment: Survival in mouse model of toxicity (CPA, then muCAR-T or mock cells); assay type: in vivo; conditions: 250 mg/kg CPA alone i.p.; tumor-free BALB/c mice
Description: as §1

A20 cells = experiment: Tumor burden by histology; assay type: in vivo, mouse; conditions: mice having received A20 cells i.v.
Description: To examine the effects of tumor burden on the toxicity following B cell aplasia in mice, BALB/c mice were injected with CD19-expressing A20 cells prior to treatment with CPA and mouse anti-CD19 CAR−T cells. A20 cells are a cell line of B lymphocytes derived from a spontaneous reticulum cell neoplasm in a BALB/cAnN mouse. As the cell line was originally derived from cells of an individual of a BALB/c mouse substrain, the cells are syngenic to the BALB/c mice and can be administered into an immunocompetent BALB/c mouse without triggering an immune response.
BALB/c mice were injected intravenously with A20 cells. […] Table E3 sets forth the treatment groups.
Tumor burden also was assessed by histology in treated mice.

For `O=P1(N(CCCl)CCCl)NCCCO1` (centres unmarked) [CPA, cyclophosphamide], the “circulating CD45+ live cells, CD11b+ cells, endogenous T cells and endogenous B cells in blood” value (BALB/c mice [1]; 250 mg/kg CPA pre-conditioning, continued to drop at least for 72 hours) was “depletion”, the “immune cells in brain tissue, including endogenous T cells and endogenous B cells” value (BALB/c mice [1]; CPA pre-conditioning) was “depleted” and the “immune cells (endogenous T cells, B cells, CD45+ cells, CD11b+ cells) in spleen, kidney and liver” value (BALB/c mice [1]; treatment with CPA) was “depletion”. For the same compound, the “serum Albumin to Globulin ratio (A/G ratio)” value (BALB/c mice [2]) was “significantly reduced”, the “levels of circulating B cells” value (BALB/c mice [3]; 250 mg/kg CPA than 100 mg/kg CPA) was “reduced levels of circulating B cells to a greater degree” and the “circulating B cells, T cells, and CD11b+ cells” value (BALB/c mice [3]; 100 or 250 mg/kg CPA i.p., blood) was “depleted”. For the same compound, the Survival (BALB/c mice [4]) was 100% and the “A20 tumor masses in liver and spleen tissues” value (A20 cells) was “observed in some”.
